Data on 15 compounds can be found in US20240424113A1, “CONJUGATES COMPRISING ANTIFUNGALS AND HEAT SHOCK PROTEIN 90 (HSP90) INHIBITORS AND METHODS OF USE THEREOF” (Bright Angel Therapeutics Inc., priority 2021, published 2024).

Molecules are shown by their SMILES. Converted amounts (≈) assume the structure as drawn.

The target of test [1] is Hsp90 Nuclear Binding Domain (NBD) (Aspergillus fumigatus, UniProt P40292). Put plainly: Surface Plasmon Resonance (SPR) binding, A. fumigatus Hsp90 NBD. Particulars: biotinylated Hsp90 NBD on streptavidin chip, 25° C., 1:1 binding model; NB undefined. On the procedure: (§1) Surface Plasmon Resonance (SPR) Experiments. SPR experiments were performed on a Biacore S200 instrument at 25° C. Biotinylated Hsp90 Nuclear Binding Domain (NBD) was diluted to 40 μg/mL and immobilized on a streptavidin chip (Sensor Chip SA, GE Healthcare) at a density of 2000-2500 response units (RU) on the biosensor surface.
Chain of Hsp90 Nuclear Binding Domain (NBD) (Aspergillus fumigatus, UniProt P40292) (P40292 whole entry, looked up, the tested form may be a part): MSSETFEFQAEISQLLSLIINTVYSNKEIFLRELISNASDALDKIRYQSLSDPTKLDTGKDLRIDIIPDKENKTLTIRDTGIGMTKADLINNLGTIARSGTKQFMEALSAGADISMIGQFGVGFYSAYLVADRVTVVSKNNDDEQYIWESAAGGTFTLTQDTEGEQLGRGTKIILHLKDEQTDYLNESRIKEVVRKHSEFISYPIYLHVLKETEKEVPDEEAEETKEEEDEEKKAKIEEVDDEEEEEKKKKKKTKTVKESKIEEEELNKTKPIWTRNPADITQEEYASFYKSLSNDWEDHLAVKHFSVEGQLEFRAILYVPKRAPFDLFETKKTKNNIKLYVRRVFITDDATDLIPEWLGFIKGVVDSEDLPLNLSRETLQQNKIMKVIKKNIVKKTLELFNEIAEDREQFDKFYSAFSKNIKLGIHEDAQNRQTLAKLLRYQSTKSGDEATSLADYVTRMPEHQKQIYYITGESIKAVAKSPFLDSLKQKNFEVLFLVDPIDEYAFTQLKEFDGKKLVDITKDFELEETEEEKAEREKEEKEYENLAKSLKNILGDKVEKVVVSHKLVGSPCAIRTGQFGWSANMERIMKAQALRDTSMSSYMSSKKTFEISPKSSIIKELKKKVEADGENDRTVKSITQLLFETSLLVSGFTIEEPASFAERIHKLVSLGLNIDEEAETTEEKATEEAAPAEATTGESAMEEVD
(§2) Recombinant Hsp90 NBDs were expressed and purified as previously described (Whitesell et al., Nat Commun 10, 402 (2019)) with the following modification; Hsp90 NBD expression constructs were modified to encode a C-terminal AviTag for site-specific on-column biotinylation with a BirA biotin-ligase kit (Avidity LLC; BirA-500). Stock protein solutions in 50% glycerol were stored at −20° C. until dilution into relevant buffers. Binding experiments were done in HBS-P (0.01 M HEPES, pH 7.4, 0.15 M NaCl, 0.005% v/v surfactant P20, GE Healthcare) with 2% DMSO at flow rate of 40 μL/min. Test compounds (dilution series) were injected with a 60 s association time and 600 s dissociation time. Resulting sensorgrams were analyzed with a fit to a 1:1 binding model, using BIA evaluation software.

Test [2] deals with Hsp90 Nuclear Binding Domain (NBD) (Candida albicans (strain SC5314 / ATCC MYA-2876) (Yeast), UniProt P46598). Kind of test: Surface Plasmon Resonance (SPR) binding, C. albicans Hsp90 NBD. Particulars: biotinylated Hsp90 NBD on streptavidin chip, 25° C., 1:1 binding model. As for the experimental part: as §1, §2
Chain of Hsp90 Nuclear Binding Domain (NBD) (Candida albicans (strain SC5314 / ATCC MYA-2876) (Yeast), UniProt P46598) (P46598 1-218 limits assumed): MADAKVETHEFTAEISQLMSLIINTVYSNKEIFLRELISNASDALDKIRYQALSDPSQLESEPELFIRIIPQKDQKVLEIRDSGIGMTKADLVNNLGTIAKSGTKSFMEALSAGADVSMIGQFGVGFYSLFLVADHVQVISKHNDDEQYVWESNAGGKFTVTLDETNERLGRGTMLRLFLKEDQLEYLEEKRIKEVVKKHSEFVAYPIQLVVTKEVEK
In a further test the test system is CaCl2. Put plainly: Antifungal sensitivity testing (broth microdilution MIC). The class given is cell-based. Particulars: Table 4; 96-well broth microdilution. On the procedure:
Antifungal Sensitivity Testing. Minimum inhibitory concentrations (MICs) were determined in flat bottom, 96-well plate format using a modified broth microdilution protocol as previously described (Singh et al., PLoS Pathog. 5, e1000532 (2009); LaFayette et al., PLoS Pathog. 6, 79-80 (2010)). Compounds were formulated in dimethyl sulfoxide (DMSO, Sigma-Aldrich Co.); fluconazole was dissolved in sterile ddH2O. Each compound was tested in duplicate in at least two independent experiments. To test for fungicidal activity, cultures from MIC plates were spotted on YPD agar plates using a spotter (Frogger, V&P Scientific, Inc.). Plates were photographed after 24 h of incubation at 30° C.

By Kd is commonly meant a measure of binding affinity in units of concentration. A higher Kd goes with weaker binding. What is called MIC50 is an inhibitory concentration at the 50% level, which refers to growth in some studies and to a panel of isolates in others. A higher MIC50 goes with lower susceptibility. Take `Nc1nc2sc(-c3cn(C4CCN(CC(O)(Cn5cncn5)c5ccc(F)cc5F)CC4)nn3)cc2n(-c2ccc3c(c2)N(c2ccccc2)CCO3)c1=O` (stereo not drawn) [Compound I-51, 3-amino-6-(1-(1-(2-(2,4-difluorophenyl)-2-hydroxy-3-(1H-1,2,4-triazol-1-yl)propyl)piperidin-4-yl)-1H-1,2,3-triazol-4-yl)-1-(4-phenyl-3,4-dihydro-2H-benzo[b][1,4]oxazin-6-yl)thieno[2,3-b]pyrazin-2(1H)-one]: the figures for the Kd in test [1] and in test [2] were 14.6 nM and 3 nM, respectively. In the test on CaCl2, this compound returned an MIC50 of 1 µM (≈ 0.764 µg/mL).

As to `Nc1nc2sc(-c3nc(C(=O)NCC(O)(Cn4cncn4)c4ccc(F)cc4F)no3)cc2n(-c2ccc3c(c2)N(c2ccccc2)CCO3)c1=O` (stereo not drawn) [Compound I-57, 5-(3-amino-2-oxo-1-(4-phenyl-3,4-dihydro-2H-benzo[b][1,4]oxazin-6-yl)-1,2-dihydrothieno[2,3-b]pyrazin-6-yl)-N-(2-(2,4-difluorophenyl)-2-hydroxy-3-(1H-1,2,4-triazol-1-yl)propyl)-1,2,4-oxadiazole-3-carboxamide], the Kd stood at 46.9 nM in test [1] and 32.1 nM in test [2]. In the test with CaCl2, this compound displayed an MIC50 of 20 µM (≈ 14.5 µg/mL).

As to `Nc1nc2sc(CNC3CCN(C[C@](O)(Cn4cncn4)c4ccc(F)cc4F)CC3)cc2n(-c2ccc3c(c2)N(c2ccccc2)CCO3)c1=O` [Compound I-63, (S)-3-amino-6-(((1-(2-(2,4-difluorophenyl)-2-hydroxy-3-(1H-1,2,4-triazol-1-yl)propyl)piperidin-4-yl)amino)methyl)-1-(4-phenyl-3,4-dihydro-2H-benzo[b][1,4]oxazin-6-yl)thieno[2,3-b]pyrazin-2(1H)-one], the Kd in test [1] was determined as 591 nM; in test [2], 377 nM. This compound also yielded an MIC50 in the test with CaCl2 of 9 µM (≈ 6.53 µg/mL).

On to `Nc1nc2sc(CNC3CN(CC(O)(Cn4cncn4)c4ccc(F)cc4F)C3)cc2n(-c2ccc3c(c2)N(c2ccccc2)CCO3)c1=O` (stereo not drawn) [Compound I-66, 3-amino-6-(((1-(2-(2,4-difluorophenyl)-2-hydroxy-3-(1H-1,2,4-triazol-1-yl)propyl)azetidin-3-yl)amino)methyl)-1-(4-phenyl-3,4-dihydro-2H-benzo[b][1,4]oxazin-6-yl)thieno[2,3-b]pyrazin-2(1H)-one], for which the Kd came out at 1380 nM in test [1] and 1060 nM in test [2]. In the test with CaCl2, this compound gave an MIC50 of 22.5 µM (≈ 15.7 µg/mL).

Take `Nc1nc2sc(CN3CCN(CC(O)(Cn4cncn4)c4ccc(F)cc4F)CC3)cc2n(-c2ccc3c(c2)N(c2ccccc2)CCO3)c1=O` (stereo not drawn) [Compound I-68, 3-amino-6-((4-(2-(2,4-difluorophenyl)-2-hydroxy-3-(1H-1,2,4-triazol-1-yl)propyl)piperazin-1-yl)methyl)-1-(4-phenyl-3,4-dihydro-2H-benzo[b][1,4]oxazin-6-yl)thieno[2,3-b]pyrazin-2(1H)-one]: the figures for the Kd in test [1] and in test [2] were 545 nM and 417 nM, respectively. This compound registered an MIC50 in the test on CaCl2 of 0.75 µM (≈ 0.534 µg/mL).

For `Nc1nc2sc(CN[C@H]3CCN(CC(O)(Cn4cncn4)c4ccc(F)cc4F)C3)cc2n(-c2ccc3c(c2)N(c2ccccc2)CCO3)c1=O` (stereo partly drawn) [Compound I-71, 3-amino-6-((((3S)-1-(2-(2,4-difluorophenyl)-2-hydroxy-3-(1H-1,2,4-triazol-1-yl)propyl)pyrrolidin-3-yl)amino)methyl)-1-(4-phenyl-3,4-dihydro-2H-benzo[b][1,4]oxazin-6-yl)thieno[2,3-b]pyrazin-2(1H)-one], the values for the Kd in test [1] and in test [2] were 1260 nM and 865 nM, respectively. The compound further yielded an MIC50 in the test on CaCl2 of 6.25 µM (≈ 4.45 µg/mL).

For the compound `Nc1nc2sc(CNCCC(O)(Cn3cncn3)c3ccc(F)cc3F)cc2n(-c2ccc3c(c2)N(c2ccccc2)CCO3)c1=O` (stereo not drawn) [Compound I-74, 3-amino-6-(((3-(2,4-difluorophenyl)-3-hydroxy-4-(1H-1,2,4-triazol-1-yl)butyl)amino)methyl)-1-(4-phenyl-3,4-dihydro-2H-benzo[b][1,4]oxazin-6-yl)thieno[2,3-b]pyrazin-2(1H)-one], the Kd amounted to 853 nM in test [1] and 429 nM in test [2]. In the test with CaCl2, this compound displayed an MIC50 of 12 µM (≈ 7.88 µg/mL).

Turning to `Nc1nc2sc(CN[C@@H]3CCCN(CC(O)(Cn4cncn4)c4ccc(F)cc4F)C3)cc2n(-c2ccc3c(c2)N(c2ccccc2)CCO3)c1=O` (stereo partly drawn) [Compound I-75, 3-amino-6-((((3R)-1-(2-(2,4-difluorophenyl)-2-hydroxy-3-(1H-1,2,4-triazol-1-yl)propyl)piperidin-3-yl)amino)methyl)-1-(4-phenyl-3,4-dihydro-2H-benzo[b][1,4]oxazin-6-yl)thieno[2,3-b]pyrazin-2(1H)-one], the Kd in test [1] amounted to 340 nM; in test [2] it was 233 nM. Further, in the test on CaCl2, the MIC50 turned out to be 4 µM (≈ 2.9 µg/mL).

Consider `Nc1nc2sc(CN[C@@H]3CCN(CC(O)(Cn4cncn4)c4ccc(F)cc4F)C3)cc2n(-c2ccc3c(c2)N(c2ccccc2)CCO3)c1=O` (stereo partly drawn) [Compound I-77, 3-amino-6-((((3R)-1-(2-(2,4-difluorophenyl)-2-hydroxy-3-(1H-1,2,4-triazol-1-yl)propyl)pyrrolidin-3-yl)amino)methyl)-1-(4-phenyl-3,4-dihydro-2H-benzo[b][1,4]oxazin-6-yl)thieno[2,3-b]pyrazin-2(1H)-one], for which the equilibrium dissociation constant (Kd) was 373 nM in test [1] and 187 nM in test [2]. For the same compound, in the test on CaCl2, the MIC50 came to 12.5 µM (≈ 8.9 µg/mL).

Take `Nc1nc2sc(CN[C@H]3CCCN(CC(O)(Cn4cncn4)c4ccc(F)cc4F)C3)cc2n(-c2ccc3c(c2)N(c2ccccc2)CCO3)c1=O` (stereo partly drawn) [Compound I-79, 3-amino-6-((((3S)-1-(2-(2,4-difluorophenyl)-2-hydroxy-3-(1H-1,2,4-triazol-1-yl)propyl)piperidin-3-yl)amino)methyl)-1-(4-phenyl-3,4-dihydro-2H-benzo[b][1,4]oxazin-6-yl)thieno[2,3-b]pyrazin-2(1H)-one]: the figures for the Kd in test [1] and in test [2] were 1020 nM and 877 nM, respectively. Also, the MIC50 with CaCl2 was 3 µM (≈ 2.18 µg/mL).

As for `Nc1nc2sc(CN[C@H]3[C@@H]4CN(CC(O)(Cn5cncn5)c5ccc(F)cc5F)C[C@@H]43)cc2n(-c2ccc3c(c2)N(c2ccccc2)CCO3)c1=O` (stereo partly drawn) [Compound I-81, 3-amino-6-((((1R,5S,6s)-3-(2-(2,4-difluorophenyl)-2-hydroxy-3-(1H-1,2,4-triazol-1-yl)propyl)-3-azabicyclo[3.1.0]hexan-6-yl)amino)methyl)-1-(4-phenyl-3,4-dihydro-2H-benzo[b][1,4]oxazin-6-yl)thieno[2,3-b]pyrazin-2(1H)-one], the Kd is 1040 nM in test [1] and 825 nM in test [2]. For the same compound, the MIC50 in the test with CaCl2 came to 2.5 µM (≈ 1.81 µg/mL).

In the case of `Nc1nc2sc(CNCC(O)(Cn3cncn3)c3ccc(F)cc3F)cc2n(-c2ccc3c(c2)N(c2ccccc2)CCO3)c1=O` (stereo not drawn) [Compound I-82, 3-amino-6-(((2-(2,4-difluorophenyl)-2-hydroxy-3-(1H-1,2,4-triazol-1-yl)propyl)amino)methyl)-1-(4-phenyl-3,4-dihydro-2H-benzo[b][1,4]oxazin-6-yl)thieno[2,3-b]pyrazin-2(1H)-one], the Kd in test [1] is 1350 nM; in test [2], 826 nM. Also, the MIC50 in the test on CaCl2 worked out at 1.6 µM (≈ 1.03 µg/mL).

Regarding `CC1(NCc2cc3c(nc(N)c(=O)n3-c3ccc4c(c3)N(c3ccccc3)CCO4)s2)CCN(CC(O)(Cn2cncn2)c2ccc(F)cc2F)CC1` (stereo not drawn) [Compound I-117, 3-amino-6-(((1-(2-(2,4-difluorophenyl)-2-hydroxy-3-(1H-1,2,4-triazol-1-yl)propyl)-4-methylpiperidin-4-yl)amino)methyl)-1-(4-phenyl-3,4-dihydro-2H-benzo[b][1,4]oxazin-6-yl)thieno[2,3-b]pyrazin-2(1H)-one], the figures for the Kd in test [1] and in test [2] were 298 nM and 461 nM, respectively. The compound further showed an MIC50 in the test on CaCl2 of 3 µM (≈ 2.22 µg/mL).

In the case of `Nc1nc2sc(CN[C@@H]3CCN(CCC(O)(Cn4cncn4)c4ccc(F)cc4F)C3)cc2n(-c2ccc3c(c2)N(c2ccccc2)CCO3)c1=O` (stereo partly drawn) [Compound I-120, 3-amino-6-((((3R)-1-(3-(2,4-difluorophenyl)-3-hydroxy-4-(1H-1,2,4-triazol-1-yl)butyl)pyrrolidin-3-yl)amino)methyl)-1-(4-phenyl-3,4-dihydro-2H-benzo[b][1,4]oxazin-6-yl)thieno[2,3-b]pyrazin-2(1H)-one], the Kd in test [1] stood at 265 nM; in test [2], 179 nM. Further, the MIC50 against CaCl2 turned out to be 17.5 µM (≈ 12.7 µg/mL).

As to `Nc1nc2sc(CN[C@@H]3CCN(CC[C@@](O)(Cn4cncn4)c4ccc(F)cc4F)C3)cc2n(-c2ccc3c(c2)N(c2ccccc2)CCO3)c1=O` [Compound I-123, 3-amino-6-((((R)-1-((S)-3-(2,4-difluorophenyl)-3-hydroxy-4-(1H-1,2,4-triazol-1-yl)butyl)pyrrolidin-3-yl)amino)methyl)-1-(4-phenyl-3,4-dihydro-2H-benzo[b][1,4]oxazin-6-yl)thieno[2,3-b]pyrazin-2(1H)-one], the Kd turned out to be 238 nM in test [1] and 145 nM in test [2]. The compound also yielded an MIC50 against CaCl2 of 11.5 µM (≈ 8.35 µg/mL).
